Measurements from patent US7880007B2, “Bicyclic substituted phenyl piperidine modulators of muscarinic receptors” (Vertex Pharmaceuticals Incorporated, priority 2004, dated 2011).
One block for each compound: values may come before it.

How the values were obtained:
Assay type in all cases: cell-based
[1] = target: T1, M1 muscarinic receptor (Homo sapiens, UniProt P11229); assay: Functional mobilization of intracellular calcium (FLIPR), M1-CHO cells; conditions: for M1 Activity: M1-CHO cells, calcium mobilization (FLIPR)
T1 construct: expressed in transfected cells; host or cells: CHO (M1-CHO)
T1 sequence (P11229 1-460): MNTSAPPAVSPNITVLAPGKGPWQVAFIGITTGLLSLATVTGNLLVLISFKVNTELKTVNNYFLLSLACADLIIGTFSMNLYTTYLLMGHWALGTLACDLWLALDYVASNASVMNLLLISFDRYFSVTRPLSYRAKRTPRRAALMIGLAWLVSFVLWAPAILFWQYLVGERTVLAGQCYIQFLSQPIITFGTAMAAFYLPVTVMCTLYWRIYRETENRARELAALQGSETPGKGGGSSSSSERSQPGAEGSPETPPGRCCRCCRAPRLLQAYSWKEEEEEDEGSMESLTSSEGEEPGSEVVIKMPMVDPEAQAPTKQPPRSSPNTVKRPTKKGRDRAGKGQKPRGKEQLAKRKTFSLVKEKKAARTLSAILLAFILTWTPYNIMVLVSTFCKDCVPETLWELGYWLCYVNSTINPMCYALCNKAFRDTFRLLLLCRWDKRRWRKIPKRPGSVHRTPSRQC
Procedure, shortened: (§1)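 FLIPR fluorescence (ex 488, em 540 nm) recorded 60 sec after compound addition to dye-loaded CHO cells. Agonist mode: compound alone. Antagonist mode: 15 min compound pre-incubation, then carbachol at EC80, or co-application. Efficacy expressed as % of maximal carbachol response.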

[2] = target: T2, M2 muscarinic receptor (Homo sapiens, UniProt P08172); assay: Functional mobilization of intracellular calcium (FLIPR), M2-CHO cells; conditions: for M2 Activity: M2-CHO cells, calcium mobilization (FLIPR)
T2 construct: expressed in transfected cells; host or cells: CHO (M2-CHO)
T2 sequence (P08172 1-466): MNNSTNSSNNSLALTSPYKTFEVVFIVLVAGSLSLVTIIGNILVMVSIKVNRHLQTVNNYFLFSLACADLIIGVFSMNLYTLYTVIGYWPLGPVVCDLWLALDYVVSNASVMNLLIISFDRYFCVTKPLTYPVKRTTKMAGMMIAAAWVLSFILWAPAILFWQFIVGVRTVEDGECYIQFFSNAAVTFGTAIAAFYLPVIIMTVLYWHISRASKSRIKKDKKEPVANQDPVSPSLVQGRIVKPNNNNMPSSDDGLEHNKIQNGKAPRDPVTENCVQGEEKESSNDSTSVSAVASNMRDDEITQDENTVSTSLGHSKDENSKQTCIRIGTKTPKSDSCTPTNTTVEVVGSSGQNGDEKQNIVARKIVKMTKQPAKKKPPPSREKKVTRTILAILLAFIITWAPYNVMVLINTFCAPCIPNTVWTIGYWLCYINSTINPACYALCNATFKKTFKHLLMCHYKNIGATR
Procedure, shortened: as §1

[3] = target: T3, M3 muscarinic receptor (Homo sapiens, UniProt P20309); assay: Functional mobilization of intracellular calcium (FLIPR), M3-CHO cells; conditions: for M3 Activity: M3-CHO cells, calcium mobilization (FLIPR)
T3 construct: expressed in transfected cells; host or cells: CHO (M3-CHO)
Procedure, shortened: as §1

[4] = target: T4, M4 muscarinic receptor (Homo sapiens, UniProt P08173); assay: Functional mobilization of intracellular calcium (FLIPR), M4-CHO cells; conditions: for M4 Activity: M4-CHO cells, calcium mobilization (FLIPR)
T4 construct: expressed in transfected cells; host or cells: CHO (M4-CHO)
T4 sequence (P08173 1-479): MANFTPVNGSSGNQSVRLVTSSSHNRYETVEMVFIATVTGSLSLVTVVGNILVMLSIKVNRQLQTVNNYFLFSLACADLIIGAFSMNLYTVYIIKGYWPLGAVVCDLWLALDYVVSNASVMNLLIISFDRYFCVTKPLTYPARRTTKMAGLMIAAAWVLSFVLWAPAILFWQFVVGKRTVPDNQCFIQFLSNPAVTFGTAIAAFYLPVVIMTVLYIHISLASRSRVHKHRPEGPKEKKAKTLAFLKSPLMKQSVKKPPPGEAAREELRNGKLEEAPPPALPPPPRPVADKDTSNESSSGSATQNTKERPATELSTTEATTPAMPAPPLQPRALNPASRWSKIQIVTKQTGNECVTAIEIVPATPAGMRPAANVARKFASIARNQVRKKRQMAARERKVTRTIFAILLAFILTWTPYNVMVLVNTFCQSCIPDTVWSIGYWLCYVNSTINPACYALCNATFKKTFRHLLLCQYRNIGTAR
Procedure, shortened: as §1

[5] = 100% efficacy = maximum response obtained with the Carbachol control
[6] = 100% efficacy is the maximum response obtained with the Carbachol control

T3 sequence (P20309 whole entry): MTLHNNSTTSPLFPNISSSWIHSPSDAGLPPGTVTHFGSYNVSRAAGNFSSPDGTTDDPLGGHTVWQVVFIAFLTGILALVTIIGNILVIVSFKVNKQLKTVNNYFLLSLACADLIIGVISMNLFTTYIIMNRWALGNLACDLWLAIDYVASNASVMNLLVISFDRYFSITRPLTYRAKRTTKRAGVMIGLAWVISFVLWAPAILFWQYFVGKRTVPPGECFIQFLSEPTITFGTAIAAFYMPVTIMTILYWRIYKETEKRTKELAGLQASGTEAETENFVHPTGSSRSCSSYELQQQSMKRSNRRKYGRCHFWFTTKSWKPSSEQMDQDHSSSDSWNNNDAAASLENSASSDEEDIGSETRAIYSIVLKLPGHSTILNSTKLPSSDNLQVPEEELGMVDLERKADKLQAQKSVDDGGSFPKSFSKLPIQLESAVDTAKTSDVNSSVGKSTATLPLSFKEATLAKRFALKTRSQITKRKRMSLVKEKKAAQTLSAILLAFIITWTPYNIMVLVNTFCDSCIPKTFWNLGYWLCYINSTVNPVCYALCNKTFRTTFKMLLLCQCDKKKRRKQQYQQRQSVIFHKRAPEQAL

SMILES: COc1ccc(-c2ccc(C(=O)Nc3nccs3)cc2)cc1C1CCN(C2CCCCC2)CC1 [Compound 323]
Emax [1, 5]: < 25%
M1 Activity [1]: + (activity was measured to be greater than 5.0 μM)
Emax [2, 5]: < 25%
M2 Activity [2]: + (activity was measured to be greater than 5.0 μM)
Emax [3, 5]: < 25%
M3 Activity [3]: + (activity was measured to be greater than 5.0 μM)
Emax [4, 5]: 25 to 100%
M4 Activity [4]: ++ (activity was measured to be from 1.0 μM to 5.0 μM)

SMILES: COc1ccc(C(C)=O)cc1C1CCN([C@H]2C[C@H]3CC[C@H]2C3)CC1 [Compound 321]
Emax [1, 5]: < 25%
M1 Activity [1]: + (activity was measured to be greater than 5.0 μM)
Emax [2, 5]: < 25%
M2 Activity [2]: + (activity was measured to be greater than 5.0 μM)
Emax [3, 5]: < 25%
M3 Activity [3]: + (activity was measured to be greater than 5.0 μM)
Emax [4, 5]: < 25%
M4 Activity [4]: + (activity was measured to be greater than 5.0 μM)

SMILES: COc1ccc(F)cc1C1(OC)CCN(C[C@@H]2C[C@H]3C=C[C@H]2C3)CC1 [Compound 160]
Emax [1, 5]: 25 to 100%
M1 Activity [1]: + (activity was measured to be greater than 5.0 μM)
Emax [2, 5]: < 25%
M2 Activity [2]: + (activity was measured to be greater than 5.0 μM)
Emax [3, 5]: < 25%
M3 Activity [3]: + (activity was measured to be greater than 5.0 μM)
Emax [4, 5]: 25 to 100%
M4 Activity [4]: +++ (activity was measured to be less than 1.0 μM)

SMILES: COc1cc(F)c(F)c(C2CCN(C3CCOCC3)CC2)c1 [Compound 49]
Emax [1, 5]: 25 to 100%
M1 Activity [1]: + (activity was measured to be greater than 5.0 μM)
Emax [2, 5]: < 25%
M2 Activity [2]: + (activity was measured to be greater than 5.0 μM)
Emax [3, 5]: < 25%
M3 Activity [3]: + (activity was measured to be greater than 5.0 μM)
Emax [4, 5]: 25 to 100%
M4 Activity [4]: +++ (activity was measured to be less than 1.0 μM)

SMILES: COc1ccccc1C1CCN(C2CCCS(=O)(=O)CC2)CC1 (stereo not drawn) [Compound 66]
Emax [1, 5]: 25 to 100%
M1 Activity [1]: + (activity was measured to be greater than 5.0 μM)
Emax [2, 5]: < 25%
M2 Activity [2]: + (activity was measured to be greater than 5.0 μM)
Emax [3, 5]: < 25%
M3 Activity [3]: + (activity was measured to be greater than 5.0 μM)
Emax [4, 5]: 25 to 100%
M4 Activity [4]: ++ (activity was measured to be from 1.0 μM to 5.0 μM)

SMILES: COc1ccc(F)cc1C1(F)CCN(C2CCC3CCC2C3)CC1 (stereo not drawn) [Compound 242]
Emax [1, 5]: 25 to 100%
M1 Activity [1]: ++ (activity was measured to be from 1.0 μM to 5.0 μM)
Emax [2, 5]: 25 to 100%
M2 Activity [2]: + (activity was measured to be greater than 5.0 μM)
Emax [3, 5]: < 25%
M3 Activity [3]: + (activity was measured to be greater than 5.0 μM)
Emax [4, 5]: 25 to 100%
M4 Activity [4]: +++ (activity was measured to be less than 1.0 μM)

SMILES: Cc1ccccc1C1CCN([C@H]2C[C@H]3CC[C@H]2C3)CC1 [Compound 93]
M1 Efficacy [1, 5]: ++ (efficacy was calculated to be from 100% to 25%)
M1 Activity [1]: ++ (activity was measured to be from 1.0 μM to 5.0 μM)
M2 Efficacy [2, 5]: + (efficacy was calculated to be less than 25%)
M2 Activity [2]: + (activity was measured to be greater than 5.0 μM)
M3 Efficacy [3, 5]: + (efficacy was calculated to be less than 25%)
M3 Activity [3]: + (activity was measured to be greater than 5.0 μM)
M4 Efficacy [4, 5]: ++ (efficacy was calculated to be from 100% to 25%)
M4 Activity [4]: +++ (activity was measured to be less than 1.0 μM)

Second part, led by results:

Emax [1, 5]: 25 to 100%
Emax [2, 5]: < 25%
Emax [3, 5]: < 25%
Emax [4, 5]: 25 to 100%
SMILES: COc1ccc(Cl)cc1C1CCN(C2CCC(F)(F)CC2)CC1 [Compound 115]
M1 Activity [1]: + (activity was measured to be greater than 5.0 μM)
M2 Activity [2]: + (activity was measured to be greater than 5.0 μM)
M3 Activity [3]: + (activity was measured to be greater than 5.0 μM)
M4 Activity [4]: ++ (activity was measured to be from 1.0 μM to 5.0 μM)

Emax [1, 6]: < 25%
Emax [2, 6]: < 25%
Emax [3, 6]: < 25%
Emax [4, 6]: 25 to 100%
SMILES: Clc1cccc(-c2ccccc2C2CCN([C@H]3C[C@H]4CC[C@H]3C4)CC2)c1 [Compound 395]
M1 Activity [1]: + (activity was measured to be greater than 5.0 μM)
M2 Activity [2]: + (activity was measured to be greater than 5.0 μM)
M3 Activity [3]: + (activity was measured to be greater than 5.0 μM)
M4 Activity [4]: + (activity was measured to be greater than 5.0 μM)

Emax [1, 5]: 25 to 100%
Emax [2, 5]: < 25%
Emax [3, 5]: < 25%
Emax [4, 5]: 25 to 100%
SMILES: CCCOc1ccccc1C1CCN([C@H]2C[C@H]3CC[C@H]2C3)CC1 [Compound 47]
M1 Activity [1]: + (activity was measured to be greater than 5.0 μM)
M2 Activity [2]: + (activity was measured to be greater than 5.0 μM)
M3 Activity [3]: + (activity was measured to be greater than 5.0 μM)
M4 Activity [4]: ++ (activity was measured to be from 1.0 μM to 5.0 μM)

Emax [1, 5]: < 25%
Emax [2, 5]: < 25%
Emax [3, 5]: < 25%
Emax [4, 5]: < 25%
SMILES: COc1ccccc1C1CCN(C2CC(C)(C)CC(C)(C)C2)CC1 [Compound 138]
M1 Activity [1]: + (activity was measured to be greater than 5.0 μM)
M2 Activity [2]: + (activity was measured to be greater than 5.0 μM)
M3 Activity [3]: + (activity was measured to be greater than 5.0 μM)
M4 Activity [4]: + (activity was measured to be greater than 5.0 μM)

Emax [1, 5]: 25 to 100%
Emax [2, 5]: < 25%
Emax [3, 5]: < 25%
Emax [4, 5]: 25 to 100%
SMILES: Cc1c(C2CCN(C3C[C@H]4CC[C@H]3C4)CC2)cccc1C(F)(F)F (stereo partly drawn) [Compound 149]
M1 Activity [1]: + (activity was measured to be greater than 5.0 μM)
M2 Activity [2]: + (activity was measured to be greater than 5.0 μM)
M3 Activity [3]: + (activity was measured to be greater than 5.0 μM)
M4 Activity [4]: + (activity was measured to be greater than 5.0 μM)
